MIC data for three molecules are collected here from US8114867B2, “Oxazolidinone antibiotic derivatives” (Actelion Pharmaceuticals Ltd, priority 2007, dated 2012).

What is called MIC is the lowest concentration that inhibits growth of the organism.

SMILES strings stand for the structures.

In this assay the test system is S. aureus 29213. Put plainly: MIC by broth microdilution (NCCLS), S. aureus 29213. Conditions: Staphylococcus aureus, strain S. aureus 29213, cation-adjusted Mueller-Hinton Broth, pH 7.2-7.3. In kind it is cell-based. How it is done: These assays have been performed following the description given in “Methods for dilution Antimicrobial Susceptibility Tests for Bacteria that Grow Aerobically, 4th ed.; Approved standard: NCCLS Document M7-A4; National Committee for Clinical Laboratory Standards: Villanova, Pa., USA, 1997”. Minimal inhibitory concentrations (MICs; mg/l) were determined in cation-adjusted Mueller-Hinton Broth (BBL) by a microdilution method following NCCLS guidelines (National Committee for Clinical Laboratory Standards. Methods for Dilution Antimicrobial Susceptibility). The pH of the test medium was 7.2-7.3.

As to `COc1ccc2ncc(F)c(CN(CCO)CCC[C@@H]3CN(c4ccc5c(c4)NC(=O)CO5)C(=O)O3)c2n1` [Example 179, 6-((R)-5-{3-[(3-fluoro-6-methoxy-[1,5]naphthyridin-4-ylmethyl)-(2-hydroxy-ethyl)-amino]-propyl}-2-oxo-oxazolidin-3-yl)-4H-benzo[1,4]oxazin-3-one], the MIC is ≤ 0.063 µg/mL.
As to `COc1ccc2ncc(F)c(CNC[C@H](O)[C@@H](O)[C@@H]3CN(c4ccc5c(c4)OCCO5)C(=O)O3)c2c1` [Example 181, (S)-3-(2,3-dihydro-benzo[1,4]dioxin-6-yl)-5-{(1R,2S)-3-[(3-fluoro-6-methoxy-quinolin-4-ylmethyl)-amino]-1,2-dihydroxy-propyl}-oxazolidin-2-one], the MIC was ≤ 0.063 µg/mL.
The same measure for `COc1ccc2nccc(NCCNC[C@@H]3CN(c4ccc5c(c4)NC(=O)CS5)C(=O)O3)c2n1` [Example 201, 6-((R)-5-{[2-(6-methoxy-[1,5]naphthyridin-4-ylamino)-ethylamino]-methyl}-2-oxo-oxazolidin-3-yl)-4H-benzo[1,4]thiazin-3-one]: ≤ 0.063 µg/mL.
